Assay results reported in patent publication US9107411B2, “Indolecarboxamides and benzimidazolecarboxamides as insecticides and acaricides” (BAYER INTELLECTUAL PROPERTY GMBH, priority 2011, dated 2015).

Experiments:
Type in all cases: in vivo
[1] = system: adult engorged Boophilus microplus females of the SP-resistant Parkhurst strain; test: Boophilus microplus test (DIP); settings: application rate 100 ppm, after 7 days
Description: Boophilus microplus Test (DIP)
Test animals: adult engorged Boophilus microplus females of the SP-resistant Parkhurst strain
Solvent: dimethyl sulphoxide
10 mg of active ingredient are dissolved in 0.5 ml of dimethyl sulphoxide. For the purpose of preparing a suitable formulation, the active ingredient solution is diluted with water to the concentration desired in each case.
This active ingredient formulation is pipetted into tubes. 8-10 ticks are transferred into a further tube with holes. The tube is immersed into the active ingredient formulation, and all ticks are completely wetted. After the liquid has run out, the ticks are transferred onto filter discs in plastic dishes and stored in a climate-controlled room.
The activity is assessed after 7 days by laying of fertile eggs. Eggs whose fertility is not outwardly visible are stored in glass tubes in a climate-controlled cabinet until the larvae hatch. An efficacy of 100% means that none of the ticks has laid any fertile eggs.

adult Musca domestica = test: Musca domestica test (MUSCDO); settings: application rate 100 ppm; treated sponge; after 2 days
Outline: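 Compound dissolved in DMSO and diluted with water to the desired concentration was applied to a sponge, and vessels were populated with adult flies. Kill % was scored after 2 days, where 100% means all flies dead.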

Aulacophora femoralis = Aulacophora femoralis spray test (AUACFE); settings: application rate 20 ppm; cucumber plants, L2 larvae; after 6 days
Description: Aulacophora femoralis Spray Test (AUACFE) Solvent: 3 parts by weight of dimethylformamide Emulsifier: 1 part by weight of polyoxyethylene alkylphenyl ether To produce an appropriate active ingredient formulation, 1 part by weight of active ingredient is mixed with the stated amounts of solvent and emulsifier, and the concentrate is diluted with emulsifier-containing water to the desired concentration. If required, ammonium salts or ammonium salts and penetrants are additionally added in a concentration of 1000 ppm. Young cucumber plants (Cucumis sativus) at the cotyledonous leaf stage are sprayed with an active ingredient formulation of the desired concentration. After drying, the treated plant material is introduced into test vessels and each is infected with 5 L2 larvae of the cucurbit leaf beetle (Aulacophora femoralis). After 6 days, the efficacy in % is determined. 100% means that all of the beetle larvae have been killed; 0% means that none of the beetle larvae have been killed.

Myzus persicae [2] = test: Myzus persicae spray test (MYZUPE - OP/Carb-resistant); settings: application rate 100 ppm; aubergine plants; after 6 days
Description: Myzus persicae Spray Test (MYZUPE—OP/Carb-Resistant)
(§1) Solvent: 3 parts by weight of dimethylformamide
(§2) Emulsifier: 1 part by weight of polyoxyethylene alkylphenyl ether
(§3) To produce an appropriate active ingredient formulation, 1 part by weight of active ingredient is mixed with the stated amounts of solvent and emulsifier, and the concentrate is diluted with emulsifier-containing water to the desired concentration. If required, ammonium salts or ammonium salts and penetrants are additionally added in a concentration of 1000 ppm.
Aubergine plants (Solanum melongena) at the 2-leaf stage, which have been infested with a mixed population of the green peach aphid (Myzus persicae), are sprayed with an active ingredient formulation of the desired concentration.
After 6 days, the efficacy in % is determined. 100% means that all of the aphids have been killed; 0% means that none of the aphids have been killed.

Thrips palmi = Thrips palmi spray test (THRIPL); settings: application rate 20 ppm; cucumber plants; after 6 days
Description: Thrips palmi Spray Test (THRIPL)
as §1, §2, §3
Young cucumber plants (Cucumis sativus) are sprayed with an active ingredient formulation of the desired concentration. After drying, filter paper discs with about 100 thrips eggs (Thrips palmi) are placed onto the treated plants and, to give 100% air humidity, covered with housings.
After 6 days, the efficacy in % feeding damage is determined 100% means that there is no feeding damage; 0% means that there is no difference from the untreated control.

Myzus persicae [3] = test: Myzus test (MYZUPE spray treatment); settings: application rate 100 g/ha; Chinese cabbage leaf discs; after 6 days
Description: Myzus Test (MYZUPE Spray Treatment) Solvent: 78 parts by weight of acetone • • 1.5 parts by weight of dimethylformamide Emulsifier: 0.5 part by weight of alkylaryl polyglycol ether To produce an appropriate active ingredient formulation, 1 part by weight of active ingredient is mixed with the stated amounts of solvent and emulsifier, and the concentrate is diluted with emulsifier-containing water to the desired concentration. Leaf discs of Chinese cabbage (Brassica pekinensis) infested by all stages of the green peach aphid (Myzus persicae) are sprayed with an active ingredient formulation of the desired concentration. After 6 days, the efficacy in % is determined. 100% means that all of the aphids have been killed; 0% means that none of the aphids have been killed.

SMILES	efficacy (laying of fertile eggs) [1] [%]	efficacy (kill in %) (adult Musca domestica) [%]	efficacy in % (Aulacophora femoralis) [%]	efficacy in % (Myzus persicae [2]) [%]	efficacy in % feeding damage (Thrips palmi) [%]	efficacy in % (Myzus persicae [3]) [%]
CCn1c(C(=O)NC(c2cccc(C(F)(F)F)c2)C(F)(F)F)cc2cc(C(=O)NC3(C#N)CC3)c(Cl)cc21 (stereo not shown) [Compound 7, 6-chloro-N^5-(1-cyanocyclopropyl)-1-ethyl-N^2-{2,2,2-trifluoro-1-[3-(trifluoromethyl)phenyl]ethyl}-1H-indole-2,5-dicarboxamide]	100	100	100	98	98	90
C#CCn1c(C(=O)NC(c2ccc(F)c(C(F)(F)F)c2)C(F)(F)F)cc2cc(C(=O)NC3CC3)c(Cl)cc21 (stereo not shown) [Compound 6]	–	100	100	90	90	–
